Measured values as given in patent US8106034B2, “Angiotensin II receptor antagonists” (Merck Sharp & Dohme Corp., priority 2008, dated 2012).
pEC50: −log10 of the molar value.

System: isolated rabbit thoracic aorta preparations
Assay: Vessel relaxation in isolated rabbit thoracic aorta preparations
Settings: Oryctolagus cuniculus; in vitro, rabbit aortic rings precontracted with noradrenaline, functional endothelium present
Method: The ability of the compounds to induce vasorelaxation was tested in vitro in isolated rabbit thoracic aorta preparations (Wanstall J. C. et al., Br. J. Pharmacol., 134:463-472, 2001). Male New Zealand rabbits were anaesthetized with thiopental-Na (50 mg/kg, iv), sacrificed by exsanguinations and then the thorax was opened and the aorta dissected. Aortic ring preparations (4 mm in length) were set up in physiological salt solution (PSS) at 37° C. in small organ chambers (5 ml). The composition of PSS was (mM): NaCl 130, NaHCO3 14.9, KH2PO4 1.2, MgSO4 1.2, HEPES 10, CaCl2, ascorbic acid […] and glucose 1.1 (95% O2/5% CO2; pH 7.4). Each ring was mounted under 2 g passive tension. Isometric tension was recorded with a Grass transducer (Grass FT03) attached to a BIOPAC MP150 System. Preparations were allowed to equilibrate for 1 h, and then contracted submaximally with noradrenaline (NA, 1 μM) and, when the contraction was stable, acetylcholine (ACh, 10 μM) was added. A relaxant response to ACh indicated the presence of a functional endothelium. […] When a stable precontraction was reached, a cumulative concentration-response curve to either of the vasorelaxant agents was obtained in the presence of a functional endothelium. Each arterial ring was exposed to only one combination of inhibitor and vasorelaxant. […]
Examples 3 and 5 were evaluated for vessel relaxation.

Row | pEC50 | SMILES
1 | 5.28 | CCCCc1nc(Cl)c(C(=O)OCO/N=[N+](\[O-])N2CCCCC2CO)n1Cc1ccc(-c2ccccc2-c2nnn[nH]2)cc1 (centres unmarked) [Example 3, O^2-({[(2-butyl-4-chloro-1-{[2′-(1H-tetrazol-5-yl)biphenyl-4-yl]methyl}-1H-imidazol-5-yl)carbonyl]oxy}methyl)1-[2-(hydroxymethyl)piperidin-1-yl]diazen-1-ium-1,2-diolate]
2 | 4.73 | CCCCc1nc(Cl)c(C(=O)OCO/N=[N+](\[O-])N2CCC[C@H]2C(=O)O)n1Cc1ccc(-c2ccccc2-c2nnn[nH]2)cc1 [Example 5, O^2-({[(2-butyl-4-chloro-1-{[2′-(1H-tetrazol-5-yl)biphenyl-4-yl]methyl}-1H-imidazol-5-yl)carbonyl]oxy}methyl)1-[2S-(carboxylato)pyrrolidin-1-yl]diazen-1-ium-1,2-diolate]
